# Measured values: ChEMBL document CHEMBL1201862, “PubChem BioAssay data set” (2004)
# Calls of active or inactive are those of the source.
# Columns and labels:
# [1] = molecular target: T1, Heat shock factor protein 1 (Mus musculus, UniProt P38532); test: enhancement of HSF1-driven luciferase signal – cell-based, NIH3T3, luminescence, dose retest, confirmation (AID 435004); format: functional;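 further: stress induced by proteasome inhibitor MG132 added 30 min after compound; luciferase reporter driven by HSF1 response element in NIH3T3 cells; actives raise luminescence as potentiators of the MG132 stress response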
# T1 sequence (P38532 whole entry): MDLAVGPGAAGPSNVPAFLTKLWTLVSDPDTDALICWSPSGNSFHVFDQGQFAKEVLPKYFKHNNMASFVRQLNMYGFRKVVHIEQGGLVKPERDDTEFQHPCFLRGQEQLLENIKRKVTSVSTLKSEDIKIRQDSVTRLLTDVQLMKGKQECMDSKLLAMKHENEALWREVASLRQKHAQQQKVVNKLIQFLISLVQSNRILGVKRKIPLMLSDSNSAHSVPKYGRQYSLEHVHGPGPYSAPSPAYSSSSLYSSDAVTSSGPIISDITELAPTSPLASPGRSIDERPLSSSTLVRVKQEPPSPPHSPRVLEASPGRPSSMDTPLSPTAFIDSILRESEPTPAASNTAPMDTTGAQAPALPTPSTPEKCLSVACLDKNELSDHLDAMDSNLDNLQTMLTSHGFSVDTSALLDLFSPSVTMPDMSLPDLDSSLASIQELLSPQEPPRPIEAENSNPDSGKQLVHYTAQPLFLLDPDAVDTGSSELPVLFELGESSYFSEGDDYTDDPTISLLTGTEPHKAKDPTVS
# Vero [2] = test: cells; format: functional; conditions: Chlorocebus sabaeus
# Vero [3] = test: cells; format: functional, cell-based; conditions: Chlorocebus sabaeus
# HEK293 [4] = test: inhibition of NOD1-driven NF-kB reporter – cell-based, luminescence, uHTS, primary screen (AID 1578); format: functional; conditions: Homo sapiens
# HEK293 [5] = test: NOD2 signaling inhibitors in MDP-stimulated cells, cell-based, uHTS, luminescence (AID 2001); format: functional; conditions: Homo sapiens
# [6] = Luminescence Cell-Based Dose Retest to Confirm Inhibitors of Cancer Stem Cells. [Related pubchem assays (depositor defined):AID2717, AID2721]; format: functional; conditions: Homo sapiens
# HEK293 [7] = test: cells; format: functional, cell-based; conditions: Homo sapiens
# HEK293 [8] = test: cells; format: functional, cell-based; conditions: Homo sapiens; remark: listed apart in the source
# HeLa = test: ATP-based viability loss in HeLa cells – cell-based, CellTiter-Glo luminescence, cherry-pick samples, cytotoxicity control for MITF activator project, dose response (AID 540259); format: functional; conditions: Homo sapiens
# Exodeoxyribonuclease V = molecular target: T2, Exodeoxyribonuclease V (Escherichia coli (strain K12), UniProt P04993+P07648+P08394); test: RecBCD inhibition via phage-restricted bacterial growth – absorbance, V66 E. coli, mutant T4 phage, counter-screen for AddAB inhibitor project, dose response (AID 492957); format: functional, cell-based, Escherichia coli str. K-12 substr. MG1655
# T2 sequence (P04993 whole entry): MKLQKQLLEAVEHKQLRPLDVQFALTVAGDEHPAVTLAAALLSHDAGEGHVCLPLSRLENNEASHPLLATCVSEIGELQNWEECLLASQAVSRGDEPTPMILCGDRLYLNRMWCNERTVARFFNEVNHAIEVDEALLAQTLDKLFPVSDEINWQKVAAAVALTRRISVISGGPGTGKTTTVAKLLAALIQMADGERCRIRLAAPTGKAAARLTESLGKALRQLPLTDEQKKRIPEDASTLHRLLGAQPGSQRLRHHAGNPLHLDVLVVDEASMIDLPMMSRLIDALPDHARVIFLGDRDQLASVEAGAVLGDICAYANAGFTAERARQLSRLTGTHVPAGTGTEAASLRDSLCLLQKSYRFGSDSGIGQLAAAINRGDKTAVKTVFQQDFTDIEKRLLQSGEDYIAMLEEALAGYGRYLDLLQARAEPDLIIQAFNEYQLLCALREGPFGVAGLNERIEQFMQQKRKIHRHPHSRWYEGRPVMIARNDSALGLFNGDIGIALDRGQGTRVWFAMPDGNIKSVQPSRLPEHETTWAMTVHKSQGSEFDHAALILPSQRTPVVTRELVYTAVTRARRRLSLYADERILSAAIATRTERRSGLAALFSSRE
# T2 sequence (P07648 whole entry): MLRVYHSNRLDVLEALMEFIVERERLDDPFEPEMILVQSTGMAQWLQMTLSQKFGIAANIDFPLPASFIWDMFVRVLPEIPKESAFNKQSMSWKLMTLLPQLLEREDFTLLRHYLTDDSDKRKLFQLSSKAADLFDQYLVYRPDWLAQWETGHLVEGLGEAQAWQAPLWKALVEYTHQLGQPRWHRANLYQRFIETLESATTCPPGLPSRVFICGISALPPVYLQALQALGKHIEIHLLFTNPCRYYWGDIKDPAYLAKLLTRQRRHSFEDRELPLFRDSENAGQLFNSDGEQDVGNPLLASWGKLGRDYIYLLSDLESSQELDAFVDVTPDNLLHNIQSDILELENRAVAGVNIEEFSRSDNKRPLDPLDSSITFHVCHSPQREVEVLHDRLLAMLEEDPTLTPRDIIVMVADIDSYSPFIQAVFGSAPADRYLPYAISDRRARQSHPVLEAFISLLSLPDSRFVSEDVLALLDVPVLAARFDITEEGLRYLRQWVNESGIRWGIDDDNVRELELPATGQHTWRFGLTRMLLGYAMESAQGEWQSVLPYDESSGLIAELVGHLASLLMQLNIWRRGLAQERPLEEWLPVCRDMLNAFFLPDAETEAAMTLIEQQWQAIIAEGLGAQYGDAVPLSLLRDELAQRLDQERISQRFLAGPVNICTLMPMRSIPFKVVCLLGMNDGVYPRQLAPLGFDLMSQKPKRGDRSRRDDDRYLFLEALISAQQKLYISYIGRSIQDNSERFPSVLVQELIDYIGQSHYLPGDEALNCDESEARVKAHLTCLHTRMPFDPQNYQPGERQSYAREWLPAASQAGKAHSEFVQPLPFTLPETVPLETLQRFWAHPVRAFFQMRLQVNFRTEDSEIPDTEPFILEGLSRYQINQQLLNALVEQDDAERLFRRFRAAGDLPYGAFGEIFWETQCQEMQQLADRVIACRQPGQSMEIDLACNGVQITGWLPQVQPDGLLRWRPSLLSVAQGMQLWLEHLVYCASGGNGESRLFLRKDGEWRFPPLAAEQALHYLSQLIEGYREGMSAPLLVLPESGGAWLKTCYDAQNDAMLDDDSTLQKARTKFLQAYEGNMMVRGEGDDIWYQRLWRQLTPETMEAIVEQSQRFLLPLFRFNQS
# T2 sequence (P08394 whole entry): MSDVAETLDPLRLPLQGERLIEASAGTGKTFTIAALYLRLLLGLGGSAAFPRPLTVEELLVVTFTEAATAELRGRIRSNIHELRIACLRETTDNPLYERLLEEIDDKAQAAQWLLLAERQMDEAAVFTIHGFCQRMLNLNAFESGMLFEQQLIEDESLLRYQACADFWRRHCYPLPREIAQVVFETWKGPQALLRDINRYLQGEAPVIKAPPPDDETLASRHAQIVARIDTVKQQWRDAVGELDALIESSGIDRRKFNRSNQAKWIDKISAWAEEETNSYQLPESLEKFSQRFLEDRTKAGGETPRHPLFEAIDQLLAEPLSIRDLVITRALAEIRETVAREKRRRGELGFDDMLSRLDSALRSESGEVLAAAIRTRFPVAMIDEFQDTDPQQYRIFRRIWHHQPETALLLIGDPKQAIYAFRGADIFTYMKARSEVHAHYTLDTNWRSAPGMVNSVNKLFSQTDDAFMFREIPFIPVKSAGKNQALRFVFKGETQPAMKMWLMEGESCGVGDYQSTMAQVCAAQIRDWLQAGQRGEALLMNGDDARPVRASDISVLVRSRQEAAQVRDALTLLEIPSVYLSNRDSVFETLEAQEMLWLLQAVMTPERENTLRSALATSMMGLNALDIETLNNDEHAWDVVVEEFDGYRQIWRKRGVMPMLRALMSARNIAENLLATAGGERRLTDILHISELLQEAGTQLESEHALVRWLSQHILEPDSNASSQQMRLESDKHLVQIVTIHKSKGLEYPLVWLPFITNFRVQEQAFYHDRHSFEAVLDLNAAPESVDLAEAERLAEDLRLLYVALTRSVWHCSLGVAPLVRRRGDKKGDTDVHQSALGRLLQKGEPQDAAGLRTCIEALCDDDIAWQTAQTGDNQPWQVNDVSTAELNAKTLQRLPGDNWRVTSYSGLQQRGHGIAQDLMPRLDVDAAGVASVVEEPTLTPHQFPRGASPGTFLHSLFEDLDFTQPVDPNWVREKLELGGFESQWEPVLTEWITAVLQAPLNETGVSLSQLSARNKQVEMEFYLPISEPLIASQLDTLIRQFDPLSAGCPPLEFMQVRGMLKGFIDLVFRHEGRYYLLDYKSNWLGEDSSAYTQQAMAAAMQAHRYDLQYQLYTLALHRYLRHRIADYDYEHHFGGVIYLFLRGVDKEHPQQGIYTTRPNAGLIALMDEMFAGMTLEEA
# [9] = Counterscreen for AddAB inhibitors: absorbance-based bacterial cell-based high throughput dose response assay for inhibitors of bacterial viability. [Related pubchem assays (depositor defined):AID435030, AID449728, AID449731, AID488942, AID488955, AID488956]; format: functional
Structure (SMILES),CC50 (Vero [2]),IC50 (Vero [3]),AC50 [6],further results
C=C(C(=O)c1ccccc1)C(CC(=O)c1ccccc1)c1ccccc1 (stereo unspecified),21 µM (active),21.4 µM (active),2.07 µM (active),EC50 [1]: 7.91 µM (active); EC50 (HEK293 [4]): 8.67 µM (active); IC50 (HEK293 [5]): 4.04 µM (active); IC50 (HEK293 [7]): > 20 µM (inactive); IC50 (HEK293 [8]): 1.42 µM (active)
COc1ccc(-c2nn(-c3ccccc3)cc2C(=O)NC(=S)NNC(=O)c2ccncc2)cc1,16.4 µM (active),16.6 µM (active),–,–
CC1(C)CN=c2s/c(=C\c3ccc(Cl)cc3)c(=O)n2C1,–,–,–,AC50 (HeLa): 277 µM (active)
C[C@]12CC[C@H](O)C[C@H]1CC[C@@H]1[C@@H]2CC[C@]2(C)[C@@H](C3=CC(=O)OC3)[C@@H](O)C[C@]12O [GITOXIGENIN],6.88 µM (active),> 12.5 µM (active),2.58 µM (active),–
O=C1CCC(=O)N(O)CCCCCNC(=O)CCC(=O)N(O)CCCCCNC(=O)CCC(=O)N(O)CCCCCN1 [NOCARDAMINE],–,–,–,IC50 (Exodeoxyribonuclease V): > 119 µM (inactive); IC50 [9]: > 119 µM (inactive)
